Results: patent US20240058387A1, “CULTURE MEDIUM COMPOSITION FOR AMPLIFYING AND MAINTAINING SELF-RENEWAL CAPACITY AND DIFFERENTIATION POTENTIAL OF HSCS AND APPLICATION THEREOF” (EDIGENE (GUANGZHOU) INC., priority 2020, published 2024)

What was measured:
Format in all cases: cell-based, human
[1] = test system: umbilical cord blood-derived CD34+ cells; experiment: Cell counting: total cell number and absolute number of marker-positive cells after small molecule induction; details: 6 days
Description: (§1) According to the solubility and required solvent indicated in the instructions of the small molecule inhibitor (see Table 1 for the Cat. number of the small molecule inhibitor), the preparation of the small molecule inhibitor stock solution was carried out. Next, the hematopoietic stem cell medium was prepared: SFEM II medium (stem cell, Cat. number: 09655)+50 ng/ml growth factor Flt-3L (PeProtech, Cat. number: 300-100UG)+50 ng/ml growth factor SCF (PeProtech, Cat. number): 300-07-100UG)+50 ng/ml growth factor TPO (PeProtech, Cat. number: 300-18-100UG)+10 ng/ml interleukin IL-6 (PeProtech, Cat. number: 200-06-20UG)+1% bispecific antibody (HyClone, Cat. No.: sv30010). According to the set concentration gradient of the small molecule inhibitor, the stock solution and the basal medium were used to prepare the medium containing different concentrations of the small molecule inhibitor.
(§2) First, the prepared medium was added to a 24-well plate (Corning, Cat. number: 3473), 950 μl per well, and placing it in a carbon dioxide incubator (Thermo, model: 3111) to preheat; resuspending the spare umbilical cord Blood-derived HSCs of Example 1 with SFEM 11+50 ng/ml Flt-3L+50 ng/ml SCF+50 ng/ml TPO+10 ng/ml IL-6+1% bispecific antibody, calculating the medium volume to be added according to 50 μl cell suspension per well and 2*10^5/m1 cell density per well. For example, when the final volume of the cell culture solution per well was 1 ml, the total number of cells per well was 2*10^5 cells calculated according to the cell density per well, and the density of the […] of cell suspension supplemented to each well is 4*10^6/ml. The density of the spare HSCs of Example 1 was adjusted to the calculated density of the cell suspension, and adding it; taking out the preheated medium from the incubator, adding 50 μl of the cell suspension to each well, and after mixing, using the microscope (OLYMPUS, model: CKX53) to observe the cells state, and then putting it into an incubator for culturing.
On the umbilical cord blood-derived CD34+ cells sorted in Example 1, the optimal concentration of the screened-out inhibitor AG1296 was screened in the same way as in Example 2. After 6 days of induction with different concentrations of the small molecule inhibitor AG1296, the expression of LT-HSCs cell surface markers (CD34+CD45+CD90+CD45RA−CD38−) was detected by flow cytometry using the same method as in Example 3. 20 μL of cell suspension was taken to count in a cell counter (Nexcelom, model: Cellometer K2) on the 6th day of culture, calculating the absolute number of the final CD34+ cells and LT-HSCs on the 6th day (absolute number of cells=total number of cells*sternness ratio). The results were shown in FIGS. 3A-3B and FIGS. 4A-4B, respectively.

[2] = test system: mobilized peripheral blood-derived CD34+ cells; experiment: Cell counting: absolute number of marker-positive cells, comparison with UM171 and SR1; details: FIG. 5B, 8 days
Description: as §1, §2
On the mobilized peripheral blood-derived CD34+ cells sorted in Example 1, the screened-out inhibitor AG1296 and literature-reported (Fares I, et al. Science. 2014; Boitano A E, et al. Science. 2010) inhibitors UM171 and SR1 were compared in the same way as Example 2. Eight days after the induction of the small molecule inhibitor, the expression of LT-HSCs cell surface markers (CD34+CD45+CD90+CD45RA−CD38−) was detected by flow cytometry using the same method as in Example 3. After 8 days of culture, 20 μL of cell suspension was taken into a cell counter (Nexcelom, model: Cellometer K2) and counted, and the absolute numbers of the final CD34+ cells and LT-HSCs on […] were calculated (absolute number of cells=total number of cells*stemness ratio).

[3] = test system: umbilical cord blood-derived CD34+ cells; experiment: Flow cytometry detection of HSC stemness markers (LT-HSCs CD34+CD45+CD90+CD45RA-CD38-) after small molecule induction
Description: as §1, §2
20 μL of cells cultured for 6-8 days (D6-D8) in the above Example 2 was sampled for counting, taking out a suspension of 2*10^5 cells into a 1.5 ml centrifuge tube according to the counting result; centrifuging at 400 g for 5 min, discarding the supernatant. 100 μL of PBS (phosphate-buffered saline solution, HyClone, Cat. number: SH30256.01) containing 1% HSA (human serum albumin, Guangdong Shuanglin, Cat. number: S10970069) was taken, resuspending the cells, and vortexing to mix well for later use. Then, the cell sample in the control was collected. The number of cells and the collection method were the same as those of the sample cells to be tested. The controls were setting as the NC group and the ISO group respectively, selecting the cells from any sample or mixed cells of the samples to be tested in this batch of experiments, depending on the number of cells.
According to Table 3 above, the antibodies were added to the cell suspensions of the above-mentioned cell samples to be tested and control cell samples according to groups; vortexing to mix and incubating at room temperature for 15 min in the dark. After 15-min incubation, 1 ml of PBS containing 1% HSA was added to each test sample, mixing well, centrifuging at 400 g for 5 min at room temperature. After centrifugation, the supernatant was discarded, and the cells were resuspended in 100 μL of PBS containing 1% HSA for each test sample. Samples were stored at room temperature away from light before testing. […]

[4] = FIG. 3B, 1 μM, 5 μM and 10 μM, vs Mock

Structure (SMILES): COc1cc2ncc(-c3ccccc3)nc2cc1OC [AG1296]
- total cell number ([1]; FIG. 3B, 1 μM vs 5 μM and 10 μM): higher cell numbers than that at concentrations of 5 μM and 10 μM
- absolute number of proliferating LT-HSCs ([1]; FIG. 3B, 1 μM, 5 μM and 10 μM): better effect
- effect on cell proliferation ([1]; FIG. 3B, 1 μM, 5 μM and 10 μM): slightly inhibited cell proliferation
- absolute number of CD34+CD90+CD45RA- cells [1, 4]: significantly better than the Mock group
- absolute numbers of CD34+ cells [1, 4]: lower than that in the mock group
- absolute number of proliferating LT-HSCs relative to other groups ([1]; FIG. 4B, 1 μM): 1-2 times
- effect on cell proliferation ([1]; FIG. 4B, 1 μM): slightly inhibited cell proliferation
- absolute number of CD34+ cells ([1]; FIG. 4B, 1 μM, vs Mock, 100 nM, 500 nM groups): not significantly better than other groups
- absolute number of CD34+CD90+, and CD34+CD90+CD45RA- cells ([1]; FIG. 4B, 1 μM, vs other groups): significantly better than other groups
- absolute number of CD34+CD90+, and CD34+CD90+CD45RA- cells ([2]; 1 μM): showed superiority
- effect on cell proliferation ([2]; 1 μM): could inhibit cell proliferation
- absolute number of CD34+ cells ([2]; AG1296 at 1 μM, UM171 concentration not given): not significantly better than other groups
- expansion fold of the ratio of LT-HSCs (CD34+CD45+CD90+CD45RA-CD38-), test group/control group (Mock) ([3]; FIG. 2, 6-8 days induction, 3 concentrations per inhibitor): more than 3 times
- maintaining the CD3+, CD34+CD90+, CD34+CD90+CD45RA- cell ratios (proportion in total cells) ([3]; FIG. 3A, 1 μM, 5 μM and 10 μM, 6 days, vs Mock): superior to the Mock group
- proportion of LT-HSC relative to AG1296 (500 nM) ([3]; FIG. 4A, 1 μM, 6 days): about 2 times
- proportion of LT-HSC relative to Mock group and AG1296 (100 nM) group ([3]; FIG. 4A, 1 μM, 6 days): about 3 times
- maintaining the ratio of CD34+, CD34+CD90+, and CD34+CD90+CD45RA- cells ([3]; FIG. 4A, 1 μM, 6 days, vs Mock, 100 nM and 500 nM): better than Mock group and at the concentrations of 100 nM and 500 nM
